Test results: US20210038607A1, “OXADIAZOLYLTHIOPHENE DERIVATIVES USEFUL AS HISTONE DEACETYLASE INHIBITORS” (Karus Therapeutics Limited, priority 2018, published 2021)

Assays:
[1] = test system: acetylated histone H3 in A549 lung adenocarcinoma cells; assay: Acetylated histone H3 in-cell western (ICW) assay; type: cell-based; conditions: Homo sapiens, 16 h exposure, relative to 40 μM Trichostatin A positive control, read-out: EC50 Ac-histone H3, A549 cells
Experimental: (§1) Acetylated α-Tubulin and Histone H3 in-Cell Western (ICW) Assays
(§2) A549 cells were maintained in DMEM (Life Technologies)+10% FBS+2 mM glutamine & penicillin (10 μg/mL) and streptomycin ([…]. 10,000 A549 cells per well were plated into 96 well tissue culture plates (Corning) and incubated at 37° C. overnight in a humidified atmosphere containing 5% CO2 prior to addition of compounds. Compounds (dissolved in 100% DMSO) were diluted into cell culture media at 2× final assay concentration. 2× compound or DMSO (negative control) were added to cells (final DMSO concentration 0.4%). Untreated control wells received media. For acetylated α-tubulin assays, 40 μM scriptaid was used as a positive control. For acetylated histone H3 assays, 40 μM Trichostatin A (TSA) was used as a positive control. Cells were exposed to compound at 37° C. in a humidified atmosphere containing 5% CO2 for 16 h.
(§3) Measurement of the impact of compounds on levels of acetylated α-tubulin and histone H3 was performed using specific antibodies and near-infrared immunofluorescent dyes. Briefly, media was removed from wells of assay plates. Cells were washed once with PBS and fixed in 3.7% formaldehyde PBS solution at room temperature for 20 min. Cells were then permeabilised by washing 5 times in 0.1% triton-X-100 PBS at room temperature with gentle agitation for 5 min per wash. Non-specific antibody staining was blocked by the addition of Odyssey blocking buffer (Li-Cor) for 1.5 h at room temperature with gentle agitation. Cells were then incubated with primary antibody (mouse monoclonal anti-acetylated α-tubulin (clone 6-11B-1), Sigma or rabbit polyclonal anti-acetylated histone H3, Millipore) diluted in Odyssey blocking buffer at 4° C. with gentle shaking overnight (no antibody control and secondary antibody only wells were incubated with Odyssey blocking buffer only). Cells were washed five times with 0.1% tween PBS and labelled with secondary antibody (IR dye 800CW-conjugated goat anti mouse IgG or -goat anti rabbit IgG, Li-Cor) and cell stains Sapphire700 (Li-Cor) and Draq5 (Biostatus) diluted in Odyssey blocking buffer at room temperature in the dark with gentle shaking for 1 h (no antibody control wells were incubated with Odyssey blocking buffer only and secondary antibody only with diluted secondary antibody but no cell stains). Cells were washed with 0.1% Tween PBS five times and scanned using a Li-Cor Odyssey SA plate reader in 700 and 800 nm channels. Acetylated α-tubulin or histone H3 signal was normalised to cell number using the cell stain signal. Percentage increase in acetylated α-tubulin or histone H3 after compound treatment over the mean of DMSO treated controls, relative to scriptaid and TSA positive controls, respectively was calculated. EC50 values were calculated using GraphPad Prism software and nonlinear regression with 0% bottom and 100% top constraints.

[2] = test system: acetylated α-tubulin in A549 lung adenocarcinoma cells; assay: Acetylated α-tubulin in-cell western (ICW) assay; type: cell-based; conditions: Homo sapiens, 16 h exposure, relative to 40 μM scriptaid positive control, read-out: EC50 Ac-α-tubulin, A549 cells
Experimental: as §1, §2, §3

| Structure (SMILES) | EC50 [1] | EC50 [2] |
| --- | --- | --- |
| CS(=O)(=O)c1nccc(N(Cc2ccc(-c3noc(C(F)(F)F)n3)s2)c2cnccn2)n1 [Example CE, 2-Methanesulfonyl-N-(pyrazin-2-yl)-N-({5-[5-(trifluoromethyl)-1,2,4-oxadiazol-3-yl]thiophen-2-yl}methyl)pyrimidin-4-amine] | ≥ 10 µM | ≥ 10 µM |
| FC(F)(F)c1ccc(N(Cc2ccc(-c3noc(C(F)(F)F)n3)s2)c2cnccn2)nn1 [Example DH, N-(Pyrazin-2-yl)-6-(trifluoromethyl)-N-({5-[5-(trifluoromethyl)-1,2,4-oxadiazol-3-yl]thiophen-2-yl}methyl)pyridazin-3-amine] | ≥ 10 µM | ≥ 10 µM |
| CS(=O)(=O)c1ccc(N(Cc2ccc(-c3noc(C(F)(F)F)n3)s2)c2cnccn2)nn1 [Example DL, 6-Methanesulfonyl-N-(pyrazin-2-yl)-N-({5-[5-(trifluoromethyl)-1,2,4-oxadiazol-3-yl]thiophen-2-yl}methyl)pyridazin-3-amine] | ≥ 10 µM | 1 to 10 µM |
| FC(F)(F)c1nc(-c2ccc(CN(c3cnccn3)c3ccc(N4CCCC4)nn3)s2)no1 [Example DI, N-(Pyrazin-2-yl)-6-(pyrrolidin-1-yl)-N-({5-[5-(trifluoromethyl)-1,2,4-oxadiazol-3-yl]thiophen-2-yl}methyl)pyridazin-3-amine] | ≥ 10 µM | 1 to 10 µM |
